Data reported in article PMC9612231, “Antileishmanial Anthracene Endoperoxides: Efficacy In Vitro, Mechanisms and Structure-Activity Relationships” (Molecules, 2022).

Experiments:
[1] = Formation of the xylenol orange/Fe3+ complex by EP; settings: for Log10 (Formation Rate) / XO/Fe^3+ Formation Rate: AcEP and 250 µM FeSO4 in methanol/H2O (9:1); for XO/Fe^3+ Formation Rate: mean ± SD of 3 experiments
From the text: In subsequent experiments, we explored the activation of EP and possible cellular consequences of these compounds in Leishmania. In a chemical system, we tested how fast EP react with iron (II) and, therefore, lead to the activation of these compounds. Resulting iron (III) was detected as complex with xylenol orange (XO, Figure 3). The reaction rate of the EP stretched across two magnitudes of orders (Table 3). On the first view, there is no direct link between the activation rates and the efficiency of the compounds against Leishmania.
XO (125 µM) and butylated hydroxytoluene (4 mM) were dissolved in MeOH/H2O (9:1). FeSO4 (25 mM) in 2.5 M H2SO4 was prepared immediately before use (final concentration of 250 µM FeSO4 in the color reagent). An aliquot of 100 µL EP solution (final concentration of 100 µM) was transferred into a disposable cuvette (BRAND, Wertheim, Germany), and 1 mL of the color reagent was added. The EP that reacted slower were incubated for 0, 30, 60, and 90 min at 25 °C. The EP that reacted faster were measured every 5 s over 5 min. At these time points, the OD difference of the sample at 560 nm and 650 nm was determined using a MS1501 UV–VIS diode array spectrophotometer (Shimadzu, Kyoto, Japan). As reference, a mixture of MeOH/H2O (9:1) was used. The slope of the reaction rate was calculated using an extinction coefficient of 1.5 × 10^4 M^−1 cm^−1.

[2] = tested on: Leishmania tarentolae promastigotes (LtP); assay: LtP viability combination assay with NAC or PIH; type: cell-based; settings: 2 × 10^6 LtP/mL; for Change of IC50 value in LtP by addition of PIH: 50 µM PIH; for Change of IC50 value in LtP by addition of NAC: 2 mM NAC
From the text: Based on the findings from chemical test systems, we studied the actual activation of these EP compounds in LtP. For this purpose, we used the established viability assays for Leishmania and studied how IC50 values were changed by the presence of the typical radical scavenger N-acetyl cysteine (NAC) or the iron chelator for low molecular iron pyridoxal isonicotinoyl hydrazine (PIH). We expressed the changes of the IC50 values in the presence of these additional compounds in percent, referring to the original IC50 values in LtP set to 100% (Figure 8). […] Likewise, in the presence of the iron chelator PIH, the IC50 values of most EP in LtP shifted to higher values.
Assay medium of YEM (20.7 g/L yeast extract powder, 1.2 g/L K2HPO4, 0.2 g/L KH2PO4, 2.9 g/L glucose, pH 7.4) and PBS (1:1, v/v), 25,000 U/L penicillin, 25 mg/L streptomycin, and 7.7 µM hemin was prepared. Aliquots of 200 µL of this medium and 2 × 10^6 LtP/mL (where required) were distributed in non-treated cell culture 96-well plates. Compounds (dissolved in DMSO) were added with starting concentrations of 25 µM (Pen) or 200 µM (AcEP/Ac), and then, serial dilutions were carried out resulting in a set of concentrations (25, 5, 1, 0.2, 0.04, and 0.008 µM) or (200, 40, 8, 1.6, 0.32, and 0.064 µM). For each compound concentration, at least triplicates on each plate were performed. After incubation of the plates at 27 °C for 48 h, 50 µL of resazurin solution (final concentration in wells 20 µM) was added to each well and after 4 h of incubation, the fluorescence was measured at 560 nm excitation and 590 nm emission using a plate reader (Perkin Elmer EnSpire, Rodgau, Germany) (adapted from). Combination assays for viability in the presence of PIH and NAC were performed the same way. However, one half of the plate was filled with YEM/PBS with 2 × 10^6 LtP/mL, and the other half of the plate was filled with YEM/PBS with 2 × 10^6 LtP/mL supplemented with non-toxic concentrations of PIH (50 µM) or NAC (2 mM), so that for each plate, two compounds were tested with and without the presence of PIH or NAC. All tests were repeated at least on four different weeks of cultivation.

[3] = UV detection of cycloreversion (thermal decomposition) of AcEP; type: physicochemical; settings: 40 µM AcEP in EtOH at 70 °C over up to 23 h, UV spectra
Description: To determine EP decomposition, we recorded at first the UV spectra of the parent Ac compound and then observed the spectral changes of the corresponding EP during incubation in EtOH (Figure 7). […] Spectral changes in these compounds rather indicate other decomposition pathways.
A sample of the corresponding Ac in 1.5 mL EtOH (final concentrations 2, 8, or 10 µM) was transferred into a quartz cuvette and measured by an UV–VIS spectrometer (U3300, Hitachi, Tokyo, Japan) at 70 °C. Afterwards, an aliquot of the corresponding AcEP dissolved in EtOH (final concentration 40 µM) was pipetted into a cuvette, and its UV spectra were measured at 70 °C in a time interval of 1 h over a period of 23 h. After measurements, the re-appearance of the Ac absorption pattern was verified.

LtP = assay: Superoxide radical formation in LtP by the EPR/CMH method; type: cell-based, Leishmania tarentolae; settings: 20 min at 25 °C; for Superoxide formation in LtP (CMH oxidation), in words: 100 µM compound
From the text: Since mitochondrial inhibition can be triggered by secondary damage in the respective cells, for example, by superoxide radicals, we studied the formation of superoxide radicals in LtP by the EPR/hydroxyl-3-methoxycarbonyl-2,2,5,5-tetramethylpyrrolidine hydrochloride (CMH) method (Figure 10). […] In the presence of antimycin A (AA, an inhibitor of mitochondrial complex III), the superoxide radical formation in LtP is increased by more than 150% (Figure 11).
An aliquot of the LtP cell culture equivalent to 5 × 10^8 LtP was transferred into a 1.5 mL Eppendorf tube and was centrifuged (Hettich Universal 16, 20 °C, 2000× g, 10 min). After removal of the supernatant, the cell pellet was re-suspended in 1 mL PBS and centrifuged again and the supernatant discarded. The cell pellet was re-suspended in 1 mL of PBS with 15 mM glucose (PBS-gluc), giving a final cell density of 5 × 10^8 LtP/mL. AcEP/Ac compounds were added (100 µM final concentration) to aliquots of 50 µL of this cell suspension in 1.5 mL Eppendorf tubes and incubated for 20 min at 25 °C. Then, DFO (100 μM final concentration), DTPA (25 μM final concentration), and detection agent CMH (400 µM final concentration) were added to the aliquots before measurement. Samples containing only buffer (PBS-gluc) or only LtP (in PBS-gluc) were used as negative controls, while samples containing 20 μM AA were used as positive control. An aliquot of 17 µL suspension was aspirated into a PTFE tube (ø 0.7 mm). The tube was folded into a quartz tube (ø 4 mm outer diameter) and then transferred to the MD5 resonator of the EPR spectrometer. The measurement was started using following parameters: microwave frequency 9.682 GHz; microwave power 20 mW, modulation frequency 100 kHz; modulation amplitude 1 G; time constant 0.82 s; center field 3448 G; sweep width 100 G; scan time 84 s; attenuation 70 dB; separate scans 5. Based on a calibration curve with carboxy proxyl (CP^●) changes of the peak-to-peak intensity of CM^● spectra were converted to CMH oxidation rates (superoxide radical generation).

COc1ccccc1C12OOC(c3ccccc3OC)(c3ccccc31)c1ccccc12 [oOMeAcEP]
Log10 (Formation Rate) [1]: 2.73
XO/Fe^3+ Formation Rate [1]: 545 ± 17 nmol/min
Change of IC50 value in LtP by addition of PIH [2]: increase of IC50 values
Change of IC50 value in LtP by addition of NAC [2]: did not respond, but rather displayed even lower IC50 values

c1ccc(C23OOC(c4ccccn4)(c4ccccc42)c2ccccc23)nc1 [oPyAcEP]
Log10 (Formation Rate) [1]: 4.91
XO/Fe^3+ Formation Rate [1]: 81,700 ± 11,921 nmol/min
Change of IC50 value in LtP by addition of PIH [2]: no increase was observed
Change of IC50 value in LtP by addition of NAC [2]: higher IC50 values in the presence of the thiol NAC
Cycloreversion to the parent Ac compound (thermal decomposition) [3]: did not undergo conversion to the parent Ac compound

c1ccc(C23OOC(c4ccccc4)(c4ccccc42)c2ccccc23)cc1 [DPAcEP]
Log10 (Formation Rate) [1]: 2.83
XO/Fe^3+ Formation Rate [1]: 677 ± 86 nmol/min
Change of IC50 value in LtP by addition of PIH [2]: increase of IC50 values
Change of IC50 value in LtP by addition of NAC [2]: did not respond, but rather displayed even lower IC50 values
Cycloreversion to the parent Ac compound (thermal decomposition) [3]: clear reformation of the parent Ac compound over time

C[n+]1ccc(C23OOC(c4cc[n+](C)cc4)(c4ccccc42)c2ccccc23)cc1 [Compound 1062MeAcEP]
Log10 (Formation Rate) [1]: 2.78
XO/Fe^3+ Formation Rate [1]: 609 ± 27 nmol/min
Change of IC50 value in LtP by addition of PIH [2]: increase of IC50 values
Change of IC50 value in LtP by addition of NAC [2]: higher IC50 values in the presence of the thiol NAC

CC(C)(C)c1ccc2c(-c3cccnc3)c3ccccc3c(-c3cccnc3)c2c1 [mPyBuAc]
Superoxide formation in LtP (CMH oxidation), in words (LtP): most effective in boosting the superoxide production

CC(C)(C)c1ccc2c(c1)C1(c3cccnc3)OOC2(c2cccnc2)c2ccccc21 (stereo not drawn) [mPyBuAcEP]
Log10 (Formation Rate) [1]: 2.86
XO/Fe^3+ Formation Rate [1]: 731 ± 111 nmol/min
Activation by iron (II), in words ([1]; XO assay): rather slow activation by iron (II)
Change of IC50 value in LtP by addition of PIH [2]: increase of IC50 values
Change of IC50 value in LtP by addition of NAC [2]: higher IC50 values in the presence of the thiol NAC
Increase of superoxide formation in LtP (LtP; 100 µM Ac/AcEP): more than 70%
Superoxide formation in LtP (CMH oxidation), in words (LtP): most effective in boosting the superoxide production
Cycloreversion to the parent Ac compound (thermal decomposition) [3]: clear reformation of the parent Ac compound over time
